Reference: the NIST ThermoML archive (doi:10.1016/j.jct.2005.12.004)
Numbers after ± are expanded uncertainties.

Columns and labels:
[1] = DTA
[2] = Molar enthalpy of transition or fusion; details: DSC

Row | Structure (SMILES) | Normal melting temperature ([1]; Crystal) [°C] | Molar enthalpy of transition or fusion ([2]; Crystal) [kcal/mol] | Normal melting temperature ([1]; Crystal 1) [°C] | Triple point temperature ([1]; Crystal 2) [K] | Molar enthalpy of transition or fusion ([2]; Crystal 1) [kcal/mol] | Molar enthalpy of transition or fusion ([2]; Crystal 2) [kcal/mol]
1 | NCCCCCCCCN [1,8-diaminooctane] | 51.73 ± 0.53 | 12.1 ± 0.287 |  |  |  | 
2 | c1ccc(-c2ccccc2)cc1 [biphenyl] | 69.22 ± 0.53 | 4.71 ± 0.215 |  |  |  | 
3 | NCCCCCCCCCN [1,9-diaminononane] |  |  | 34.62 ± 0.53 | 301.14 ± 0.53 | 8.47 ± 0.263 | 2.05 ± 0.201
4 | NCCCCCCN [1,6-hexanediamine] | 38.5 ± 0.53 | 9.41 ± 0.263 |  |  |  | 
5 | NCCCCCCCCCCCCN [1,12-dodecanediamine] | 68.69 ± 0.53 | 16 ± 0.359 |  |  |  | 
